Measured values taken from patent US9937230B2, “Ophthalmic uses of toxin-based therapeutic peptides and pharmaceutical compositions thereof” (Kineta One, LLC, priority 2013, dated 2018).
“Also recorded” adds a separate entry of the source.

How the values were obtained:
[1] = tested on: unstimulated or activated T cells or macrophages from dry-eye or uveitis patients; assay: Ex vivo cytokine expression in T cells or macrophages from dry eye or uveitis patients; type: cell-based, human; details: ex vivo addition of ShK-186, intracellular staining/flow cytometry or multiplexing ELISA
Source text: (§1) In order to carry out functional assays, PBMCs from uveitis or dry eye patients and healthy controls are isolated. In the first phase of the example, the cells are either tested shortly after […] without ex vivo stimulation or activated ex vivo with anti-CD3 and anti-CD28 antibodies or mitogens and then subjected to immunostaining and multicolor flow cytometry to study expression levels of Kv1.3 channel on the surface of TEM within the CD4 and CD8+ T-cell subsets. Cells isolated from patients are expected to be high in expression of Kv1.3 without stimulation ex vivo, but this expression could increase upon activation ex vivo. […] Cytokines including IFN-γ, IL-2, IL-4, IL-10, IL-17, IL-21, and IL-22, perforin, and granzyme B are detected by intracellular staining and flow cytometry in resting or activated cells in the presence or absence of toxin-based therapeutic peptide. Additionally, they can be quantitated by an assay such as multiplexing ELISA of collected supernatants. […] This reduction can be measured by quantification of [^3H] thymidine incorporation or the fluorescent dye CFSE, among other standard immunological methods.

[2] = tested on: T cells or macrophages from dry-eye or uveitis patients; assay: Ex vivo proliferation of T cells or macrophages during ex vivo activation; type: cell-based, human; details: [3H] thymidine incorporation or CFSE
Source text: as §1

[3] = tested on: human peripheral blood mononuclear cells (PBMCs) stimulated with thapsigargin; assay: Suppression of thapsigargin-stimulated inflammatory cytokine production in human PBMCs; type: cell-based; details: FIG. 2
Source text: (§2) This Example explores the ability of pharmaceutical compositions including toxin-based therapeutic peptides disclosed herein to reduce pro-inflammatory cytokine secretion caused by thapsigargin (Sigma-Aldrich, St. Louis, Mo., USA). Thapsigargin stimulates proinflammatory cytokine release by inhibiting the Ca2+ ion pump proteins of intracellular membranes in the sarcoplasmic reticulum and endoplasmic reticulum of microsomes. This inhibition results in a rapid release of Ca2+ stores and subsequent activation of plasma membrane calcium channels.
(§3) Preparation of primary blood cells. Whole blood and peripheral blood mononuclear cells (PBMCs) were used to test the suitability of an ShK-based therapeutic peptide as disclosed herein for treating a subject with an ophthalmic condition including dry eye. Whole blood was directly aliquoted to cell culture for experimental assays without any additional processing.
PBMCs were isolated from donor blood by density gradient centrifugation as follows. Blood was collected in collection tubes containing sodium heparin as an anticoagulant and a cell separation medium including a polyester gel and a density gradient liquid (BD Vacutainer CPT). The samples were centrifuged at 1500 RCF for 20 minutes at room temperature. The cell layer containing mononuclear cells and platelets lies just below the plasma layer and was collected into a separate 15 mL conical tube using a Pasteur Pipette. The cells were washed twice with PBS and pelleted by centrifugation to remove the supernatant. The purified PBMCs were resuspended in complete RPMI (cRPMI) cell culture media and plated to the appropriate density for the assay.
(§4) Treatment of primary blood cells. ShK-186 was serially diluted in cRPMI to 4× final concentration working stock. 50 μL of working stock was added to 6 wells of a 96-well cell culture plate per concentration of ShK-based peptide. 50 μL of cRPMI without ShK-based peptide was used as control treatment in positive control (no ShK-based peptide, thapsigargin stimulus) and in negative control (no ShK-based peptide, no thapsigargin stimulus) wells. 100 μL whole blood or 200,000 PBMCs in complete RPMI was added to each well of the 96-well cell culture plate. Cells with ShK-based peptide or media control were incubated at 37° C. and 5% CO2 for one hour. After one hour, 50 μL of 40 uM thapsigargin stimulus was added to all wells except for negative control wells which received 50 μL 0.4% DMSO to 0.1% final concentration. Cells were incubated for 48 hours.
(§5) Analysis of ShK-based peptide treated and thapsigargin stimulated cells. 48 hours after stimulation by thapsigargin, 96-well plates were centrifuged at 2000 RPM for 5 minutes. The supernatant was carefully transferred to a sterile 96-well plate for sample analysis. Cytokines were detected using specific antibodies conjugated to magnetic beads and a secondary antibody that reacts with Streptavidin/Phycoerythrin to produce a fluorescent signal. The bound beads were detected and quantified using the Magpix instrument (Luminex Corp., Austin, Tex., USA), although similar techniques as are known in the art may be used to measure protein production, such as for example an ELISA, using methods of detection including fluorescent and colorimetric methods.

[4] = Local (eye) and systemic (plasma) drug levels after topical ocular administration, Sprague-Dawley rats, ELISA; type: in vivo, rat
Description: Three female 6-8 week old Sprague-Dawley rats (Indianapolis, Ind., USA) were dosed three times per day with topically administered 10 μL of P6N (sodium phosphate (10 mM), sodium chloride (0.8%), and Polysorbate 20 (0.05%) at pH 6.0) on the left eye (LE) and 10 μL of 0.5% ShK-186 in P6N on the right eye (RE) for 21 days. Blood was collected at 3, 7, 12, 14, 17, and 21 days and processed to plasma. […] ShK-186 levels in collected samples were measured using a standard direct ELISA method.

[5] = tested on: human whole blood stimulated with thapsigargin; assay: Suppression of thapsigargin-stimulated inflammatory cytokine production in human whole blood; type: cell-based; details: FIG. 1
Source text: as §2, §3, §4, §5

[6] = tested on: rat model of experimental autoimmune anterior uveitis (EAAU); assay: Melanin associated antigen (MAA) induced experimental autoimmune anterior uveitis (EAAU) model; type: in vivo
Source text: One model used to evaluate the therapeutic potential of ShK-186 in autoimmune eye diseases such as uveitis was the melanin associated antigen (MAA) induced experimental autoimmune anterior uveitis (EAAU). In this model, male Lewis rats 5-10 week old (Charles River) are immunized with MAA emulsified in complete Freund's adjuvant (CFA) subcutaneously and also receive a single intraperitoneal injection of pertussis toxin (0.2 to 1 mcg/animal). Symptoms of disease begin to appear by day 10 and peak by day 18 post immunization. The animals typically recover by day 25.
Preparation of the MAA. MAA was prepared following the procedure outlined by Simpsom et al., Eye 11, 206-208, (1997) with some modifications. The iris and ciliary body structure were dissected from 25 fresh pigmented cow eyes. The tissue was cut into small pieces and then homogenized in cold PBS. The homogenate was spun at 4000 g for 10 minutes, washed three times with PBS and then put through a detergent extraction with 2% Triton X-100, rotating for 3 hours at room temperature. The resulting material was again spun and washed three times with PBS and subject to another detergent extraction this time using 2% SDS, rotating for 3 hours at 37° C. This material was washed three times with PBS followed by three washes with H2O and a final wash with 70% ethanol. The MAA pellet was placed under a vacuum for approximately 15 min, resulting in dried antigen material stored frozen at −20° C.
Preparation of MAA:CFA emulsions. For the emulsion used for the experiment whose results are shown in FIG. 4, 50 milligrams of MAA were resuspended in 3.8 mL of PBS, and after vortexing briefly the suspension, was sonicated for 30 seconds three times incubating on ice for 30 seconds in between. This slurry was passed through a 100 μm cell strainer, thicker material was pressed through using a syringe plunger. The protein content of the suspension was determined to be 3.27 mg/mL using a commercially available BCA kit (Pierce 23225), and was stored frozen at −20° C. until use. On the day of immunization (day 0), the stock MAA was thawed at room temperature and vortexed briefly before a working dilution of 600 μg/mL was made. This solution was then mixed drop wise 1:1 with CFA while vortexing, for a final antigen concentration of 300 μg/mL (or 30 μg per animal). Emulsions were allowed to vortex an additional 5 minutes before being loaded into syringes and passed through an 18 G emulsifying bridge until very thick. Emulsions were injected the same day, 50 μL subcutaneous to each footpad, 100 μL total per animal, according to group. FIGS. 4A-D show the pathology associated with this disease model and the effects of ShK-186 topical administration on the occurrence and severity of disease.
Eyes were given individual scores based on pupil function (miosis), iris structure, presence of cells in the anterior chamber, and presence of protein in the anterior chamber (flare). Scores were then converted into a composite clinical score for each day.
For this analysis, sections of eyes previously fixed in 10% formalin were scored for iris and ciliary body structure and the degree of inflammatory cell infiltration to the stroma of the iris and/or ciliary body and anterior chamber according to disease parameters outlined by Kim et al., supra (1997); this was done by an independent veterinary pathologist. In FIG. 4C (1.) a control healthy eye (10×) is shown; (2.) & (4.) show the eye from an animal treated with vehicle that was scored a 2 (10×, 40×); (3.) & (5.) show the eye from an animal treated three times daily with 0.1% ShK-186 for 8 days followed by 1% ShK-186 for 10 days which was given a histopathology score of 0 (10×, 40×).
Clinical observations were made of each animal using a slit lamp on day 13 post induction of EAAU by immunization with an adjuvanted MAA emulsion. […]

[7] = PBMCs treated with ShK-186 one hour prior to thapsigargin, supernatant 48 hours after stimulation
[8] = PBMCs, thapsigargin stimulation
[9] = whole blood treated with ShK-186 one hour prior to thapsigargin, supernatant 48 hours after stimulation
[10] = whole blood, thapsigargin stimulation
[11] = day 18 post immunization, 0.1% then 1% ShK-186 topically

For “(L-PhosphoTyr)-AEEAc-RSCIDTIPKSRCTAFQCKHSMKYRLSFCRKTCGTC-amide [ShK-186]”, the “expression of cytokines (IFN-γ, IL-2, IL-4, IL-10, IL-17, IL-21, IL-22, perforin, granzyme B)” value [1] was “significantly reduces”, the “ex vivo proliferation of T cells or macrophages” value [2] was “significantly reduces” and the “suppression of IFN-γ level” value [3, 7] was “suppressed; also recorded: dose-dependent manner”. The “suppression of IL-2 level” value [3, 7] was “suppressed; also recorded: dose-dependent manner”, the “suppression of IL-4 level” value [3, 7] was “suppressed; also recorded: dose-dependent manner” and the “suppression of IL-17 level” value [3, 7] was “suppressed; also recorded: dose-dependent manner”. The “IC50, IFN-γ suppression” value [3, 8] was “picomolar range”, the “IC50, IL-2 suppression” value [3, 8] was “picomolar range” and the “IC50, IL-4 suppression” value [3, 8] was “picomolar range”. For the same substance, the “IC50, IL-17 suppression” value [3, 8] was “picomolar range”, the “ShK-186 in plasma (systemic exposure)” value ([4]; 0.5% ShK-186 topically to right eye three times per day for 21 days) was “no detectable and not” and the “ShK-186 concentration in aqueous fluid of the treated right eye (RE)” value ([4]; 10 μL of 0.5% ShK-186 in P6N topically three times per day for 21 days, samples at 21 days) was “significant concentrations”. The “ShK-186 in samples from the untreated left eye (LE)” value ([4]; right eye dosed 0.5% ShK-186 three times per day for 21 days, left eye vehicle) was “no detectable”, the “suppression of IFN-γ level” value [5, 9] was “dose-dependent manner; also recorded: suppressed” and the “suppression of IL-2 level” value [5, 9] was “dose-dependent manner; also recorded: suppressed”. For the same substance, the “suppression of IL-4 level” value [5, 9] was “dose-dependent manner; also recorded: suppressed”, the “suppression of IL-17 level” value [5, 9] was “dose-dependent manner; also recorded: suppressed” and the “IC50, IFN-γ suppression” value [5, 10] was “picomolar range”. The “IC50, IL-2 suppression” value [5, 10] was “picomolar range”, the “IC50, IL-4 suppression” value [5, 10] was “picomolar range” and the “IC50, IL-17 suppression” value [5, 10] was “picomolar range”. The gross pathology ([6]; ShK-186 topical administration versus vehicle (P6N), FIG. 4B) was “reduced”, the “composite clinical score of animal 4-8” value ([6]; day 18 post immunization, 0.1% ShK-186 for 9 days then 1% for 10 days topically, vehicle animal 3-2 scored 13) was 0 and the “cells in the anterior chamber score of animal 4-8” value [6, 11] was 0. The “iris vessels and structure score of animal 4-8” value [6, 11] was 0, the “protein in the anterior chamber (flare) score of animal 4-8” value [6, 11] was 0 and the “pupil score of animal 4-8” value [6, 11] was 0. For the same substance, the histopathology ([6]; eyes collected day 19 post immunization, H&E sections, FIG. 4C) was “reduces”, the “composite clinical score versus vehicle” value ([6]; slit lamp, days 11, 13, 15, 18 post induction, topical three times daily 0.1% day 0-8 and 1% ShK-186 day 9-18, N=8 rats/16 eyes) was “significantly lower” and the “histopathology score of an eye from a treated animal” value ([6]; three times daily 0.1% ShK-186 followed by 1% ShK-186 for 10 days, vehicle eye scored 2) was 0.

For “(L-Tyr)-AEEAc-RSCIDTIPKSRCTAFQCKHSMKYRLSFCRKTCGTC-amide [ShK-198]”, the “clinical score (cells in the anterior chamber; protein in the anterior chamber or flare)” value ([6]; slit lamp day 13 post induction, 1% ShK-198 topically three times daily versus P6N vehicle, N=10 rats/20 eyes) was “reduces”.
